# Source: patent US11479556B1, “Bifunctional compounds for degrading BTK via ubiquitin proteosome pathway” (NURIX THERAPEUTICS, INC., priority 2018, dated 2022)
# Target: T1, BTK (Homo sapiens, UniProt Q06187)
# T1 construct: endogenous in cells; host or cells: TMD8 cells
# Experiment: Cellular BTK HTRF assay (BTK degradation) in TMD8 cells
# Type: cell-based
# Details: four hours incubation, Total-BTK HTRF relative to DMSO-treated cells
# Experimental: Example 66: BTK Degradation Assay
# TMD8 cells were obtained from Tokyo Medical and Dental University and were grown in alpha-MEM (Fisher 12571063) supplemented with 10% heat-inactivated FBS (Corning Premium Fetal Bovine Serum from Fisher, MT35015CV).
# Compounds of the present invention were added to 50,000 TMD8 cells in round-bottom 96 well plates with a final DMSO concentration of […] and were incubated at 37° C. 5% CO2 for four hours. BTK levels were determined using Cisbio Total-BTK HTRF ([…] Time-Resolved Fluorescence) kit (63ADK064PEG) according to manufacturer's protocol. Briefly, cells were incubated in 1× supplied lysis buffer for 30 minutes. In an opaque white low volume 96 well plate (Cisbio, 66PL96005), cell lysate was combined with two different specific BTK antibodies, one conjugated with Eu^3+-Cryptate FRET donor and one conjugated with d2 FRET acceptor. Assay controls include wells containing cell lysate with only the Eu^3+-Cryptate FRET donor antibody and wells containing both HTRF antibodies and lysis buffer without cells or control lysate provided by Cisbio. HTRF ratio was calculated as (acceptor signal at 665 nm/donor signal at 620 nm)×10^4. Background HTRF levels were determined from the control well containing the donor, but no acceptor, antibody. Background HTRF levels were subtracted from all samples. Readouts were reported as HTRF levels relative to HTRF levels of DMSO-treated cells. Four-parameter non-linear regressions were performed in GraphPad Prism 7.02 to obtain DC50 values. DC50 values are provided in Table 3, wherein A<5.0 nM, 5.0 nM≤B≤15 nM, and 15 nM<C.
# T1 sequence (Q06187 whole entry): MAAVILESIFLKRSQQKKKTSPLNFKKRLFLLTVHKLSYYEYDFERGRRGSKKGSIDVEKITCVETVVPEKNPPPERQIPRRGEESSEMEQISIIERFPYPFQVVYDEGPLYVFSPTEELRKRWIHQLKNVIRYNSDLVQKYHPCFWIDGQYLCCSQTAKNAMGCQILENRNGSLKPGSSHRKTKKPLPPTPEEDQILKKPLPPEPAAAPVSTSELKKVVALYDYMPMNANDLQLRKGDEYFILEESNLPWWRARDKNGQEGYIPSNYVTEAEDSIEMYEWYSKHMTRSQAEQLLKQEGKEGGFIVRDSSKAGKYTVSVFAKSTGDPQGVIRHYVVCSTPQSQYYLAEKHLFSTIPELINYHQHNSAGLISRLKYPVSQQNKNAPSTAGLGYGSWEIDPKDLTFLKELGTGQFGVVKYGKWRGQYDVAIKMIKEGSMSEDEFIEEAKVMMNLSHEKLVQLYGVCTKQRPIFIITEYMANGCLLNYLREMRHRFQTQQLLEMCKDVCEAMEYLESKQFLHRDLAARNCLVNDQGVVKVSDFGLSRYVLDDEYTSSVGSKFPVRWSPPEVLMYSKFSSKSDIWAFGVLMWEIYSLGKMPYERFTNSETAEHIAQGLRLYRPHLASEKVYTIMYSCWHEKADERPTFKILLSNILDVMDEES
row,Compound,DC50 [nM]
1,NC(=O)c1ncc(N2CCCCC2)nc1Nc1ccc(C2CCN(CC3CCN(c4ccc(C(=O)NC5CCC(=O)NC5=O)nc4)CC3)CC2)cc1 (centres unmarked) [Compound 182],< 5
2,CN1CCN([C@@H]2CCCN(c3cnc(C(N)=O)c(Nc4ccc(C5(C)CCN(CCCc6cccc7c6CN(C6CCC(=O)NC6=O)C7=O)CC5)cc4)n3)C2)C1=O (some centres unmarked) [Compound 16],5 to 15
3,CN1CCN([C@@H]2CCCN(c3cnc(C(N)=O)c(Nc4ccc(C(=O)NCCOCCOCCOCCCc5cccc6c5CN(C5CCC(=O)NC5=O)C6=O)cc4)n3)C2)C1=O (some centres unmarked) [Compound 2],> 15
4,CN1CCN([C@@H]2CCCN(c3cnc(C(N)=O)c(Nc4ccc(C5(C)CCN(C(=O)CN6CCN(CCCc7cccc8c7C(=O)N(C7CCC(=O)NC7=O)C8=O)CC6)CC5)cc4)n3)C2)C1=O (some centres unmarked) [Compound 22],5 to 15
5,NC(=O)c1ncc(N2CCCCC2)nc1Nc1ccc(C2CCN(CC3CCN(c4ccc(CC5CCC(=O)NC5=O)cn4)CC3)CC2)cc1 (centres unmarked) [Compound 185],> 15
6,Cc1ncsc1-c1ccc([C@H](C)NC(=O)[C@@H]2C[C@@H](O)CN2C(=O)[C@@H](NC(=O)CCCCCCCC(=O)N2CCC(c3ccc(Nc4nc(N5CCC[C@@H](N6CCN(C)C6=O)C5)cnc4C(N)=O)cc3)CC2)C(C)(C)C)cc1 [Compound 188],> 15
7,Cc1ncsc1-c1ccc(CNC(=O)[C@@H]2C[C@@H](O)CN2C(=O)[C@@H](NC(=O)C2(F)CC2)C(C)(C)C)c(OCCCCCC(=O)N2CCC(c3ccc(Nc4nc(N5CCC[C@@H](N6CCN(C)C6=O)C5)cnc4C(N)=O)cc3)CC2)c1 [Compound 187],> 15
8,CN1CCN([C@@H]2CCCN(c3cnc(C(N)=O)c(Nc4ccc(C5(C)CCN(C(=O)CCOCCOCCOCCNc6cccc7c6C(=O)N(C6CCC(=O)NC6=O)C7=O)CC5)cc4)n3)C2)C1=O (some centres unmarked) [Compound 27],5 to 15
9,CN1CCN([C@@H]2CCCN(c3cnc(C(N)=O)c(Nc4ccc(N5CCN(C(=O)CN6CCN(CCc7cccc8c7CN(C7CCC(=O)NC7=O)C8=O)CC6)CC5)cc4)n3)C2)C1=O (some centres unmarked) [Compound 12],5 to 15
10,Cn1cc(Nc2nc(N3CCC[C@@H](N4CCC5(CN(CC6CCN(c7ccc8c(=O)n(C9CCC(=O)NC9=O)ccc8c7)CC6)C5)C4=O)C3)cnc2C(N)=O)cn1 (some centres unmarked) [Compound 145],< 5
11,CN1CCN([C@@H]2CCCN(c3cnc(C(N)=O)c(Nc4ccc(C5CCN(C(=O)CCCCc6cccc7c6CN(C6CCC(=O)NC6=O)C7=O)CC5)cc4)n3)C2)C1=O (some centres unmarked) [Compound 23],5 to 15
12,Cc1ncsc1-c1ccc(CNC(=O)[C@@H]2C[C@@H](O)CN2C(=O)[C@@H](NC(=O)C2(F)CC2)C(C)(C)C)c(OCCCCCCCC(=O)N2CCC(c3ccc(Nc4nc(N5CCC[C@@H](N6CCN(C)C6=O)C5)cnc4C(N)=O)cc3)CC2)c1 [Compound 186],> 15
13,CN1CCN([C@@H]2CCCN(c3cnc(C(N)=O)c(Nc4ccc(C5CCN(CC6CN(c7ccc8c(=O)n(C9CCC(=O)NC9=O)ccc8c7)C6)CC5)cc4)n3)C2)C1=O (some centres unmarked) [Compound 138],< 5
14,CN1CCN([C@@H]2CCCN(c3cnc(C(N)=O)c(Nc4ccc(C5(C)CCN(C(=O)CN6CCN(CCc7cccc8c7CN(C7CCC(=O)NC7=O)C8=O)CC6)CC5)cc4)n3)C2)C1=O (some centres unmarked) [Compound 13],5 to 15
15,CN1CCN([C@H]2CCCN(c3cnc(C(N)=O)c(Nc4cnn(C5CCN(CCCc6cccc7c6CN(C6CCC(=O)NC6=O)C7=O)CC5)c4)n3)C2)C1=O (some centres unmarked) [Compound 84],> 15
16,NC(=O)c1ncc(N2CCC[C@@H](CO)C2)nc1Nc1ccc(C2CCN(CC3CCN(c4ccc(OC5CCC(=O)NC5=O)cn4)CC3)CC2)cc1 (some centres unmarked) [Compound 171],< 5
17,CN1CCN([C@H]2CCCN(c3cnc(C(N)=O)c(Nc4ccc(C5CCN(CC6CCN(c7ccc(C(=O)NC8CCC(=O)NC8=O)cc7)CC6)CC5)cc4)n3)C2)C1=O (some centres unmarked) [Compound 130],< 5
18,CNC(C)C(=O)N[C@H](C(=O)N1C[C@@H](NC(=O)CCOCCOCCOCCOCCC(=O)N2CCC(c3ccc(Nc4nc(N5CCC[C@@H](N6CCN(C)C6=O)C5)cnc4C(N)=O)cc3)CC2)C[C@H]1C(=O)N[C@@H]1CCCc2ccccc21)C1CCCCC1 (some centres unmarked) [Compound 183],> 15

# Results, then the molecule that gave them:
row,DC50 [nM],Compound
1,< 5,CN1CCN([C@@H]2CCCN(c3cnc(C(N)=O)c(Nc4ccc(C5CCN(C[C@@H]6CCN(c7ccc8c(c7)C(=O)N(C7CCC(=O)NC7=O)C8=O)C6)CC5)cc4)n3)C2)C1=O (some centres unmarked) [Compound 52]
2,< 5,CN1CCN([C@@H]2CCCN(c3cnc(C(N)=O)c(Nc4ccc(C5CCN(c6ccc7c(c6)C(=O)N(C6CCC(=O)NC6=O)C7=O)CC5)cc4)n3)C2)C1=O (some centres unmarked) [Compound 47]
3,< 5,CN1CCN([C@H]2CCCN(c3cnc(C(N)=O)c(Nc4cnn(C5CCN(CC6CCN(c7ccc8c(c7)C(=O)N(C7CCC(=O)NC7=O)C8=O)CC6)CC5)c4)n3)C2)C1=O (some centres unmarked) [Compound 83]
4,< 5,CN1CCN([C@H]2CCCN(c3cnc(C(N)=O)c(Nc4ccc(N5CCC6(CC5)CCN(c5ccc7c(c5)C(=O)N(C5CCC(=O)NC5=O)C7=O)C6)cc4)n3)C2)C1=O (some centres unmarked) [Compound 109]
5,5 to 15,CN1CCN([C@@H]2CCCN(c3cnc(C(N)=O)c(Nc4ccc(C(=O)NCCCCNc5cccc6c5C(=O)N(C5CCC(=O)NC5=O)C6=O)cc4)n3)C2)C1=O (some centres unmarked) [Compound 8]
6,< 5,CN1CCN([C@@H]2CCCN(c3cnc(C(N)=O)c(Nc4ccc(C5CCN(C[C@H]6CCCN(c7ccc8c(c7)C(=O)N(C7CCC(=O)NC7=O)C8=O)C6)CC5)cc4)n3)C2)C1=O (some centres unmarked) [Compound 50]
7,< 5,CN1CCN([C@H]2CCCN(c3cnc(C(N)=O)c(Nc4cnn(C5CCN(C6CCN(c7ccc8c(c7)C(=O)N(C7CCC(=O)NC7=O)C8=O)CC6)CC5)c4)n3)C2)C1=O (some centres unmarked) [Compound 77]
8,< 5,NC(=O)c1ncc(N2CCCCC2)nc1Nc1ccc(C2CCN(CC3CCN(c4ccc5c(=O)n(C6CCC(=O)NC6=O)ccc5c4)CC3)CC2)cc1 (centres unmarked) [Compound 133]
9,> 15,NC(=O)c1ncc(-c2nccs2)nc1Nc1ccc(N2CCC3(CC2)CCN(c2ccc4c(c2)C(=O)N(C2CCC(=O)NC2=O)C4=O)CC3)cc1 (centres unmarked) [Compound 151]
10,> 15,NC(=O)c1ncc(-n2ccc(C(F)(F)F)n2)nc1Nc1ccc(C2CCN(CC3CCN(c4ccc5c(=O)n(C6CCC(=O)NC6=O)ccc5c4)CC3)CC2)cc1 (centres unmarked) [Compound 127]
11,> 15,NC(=O)c1ncc(N2CCCCC2)nc1Nc1ccc(N2CCN(C(=O)CCOCCCc3cccc4c3CN(C3CCC(=O)NC3=O)C4=O)CC2)cc1 (centres unmarked) [Compound 67]
12,5 to 15,CN1CCN([C@@H]2CCCN(c3cnc(C(N)=O)c(Nc4ccc(N5CCN(C(=O)CCOCCNc6cccc7c6C(=O)N(C6CCC(=O)NC6=O)C7=O)CC5)cc4)n3)C2)C1=O (some centres unmarked) [Compound 19]
13,< 5,CN1CCN([C@@H]2CCCN(c3cnc(C(N)=O)c(Nc4ccc(N5CCC6(CC5)CN(Cc5ccc7c(c5)C(=O)N(C5CCC(=O)NC5=O)C7=O)C6)cc4)n3)C2)C1=O (some centres unmarked) [Compound 93]
14,> 15,CN1CCN([C@H]2CCCN(c3cnc(C(N)=O)c(Nc4ccc(N5CC[C@@H]6CCN(c7ccc8c(c7)C(=O)N(N7CCC(=O)NC7=O)C8=O)C[C@H]6C5)cc4)n3)C2)C1=O [Compound 107]
15,< 5,NC(=O)c1ncc(-c2nccs2)nc1Nc1ccc(C2CCN(C[C@@H]3CCN(c4ccc5c(c4)C(=O)N(C4CCC(=O)NC4=O)C5=O)C3)CC2)cc1 (some centres unmarked) [Compound 148]
16,> 15,NC(=O)c1ncc(-n2ccc(C(F)(F)F)n2)nc1Nc1ccc(C2CCN(C[C@H]3CCN(c4ccc5c(c4)C(=O)N(C4CCC(=O)NC4=O)C5=O)C3)CC2)cc1 (some centres unmarked) [Compound 128]
17,> 15,CN1CCN([C@H]2CCCN(c3cnc(C(N)=O)c(Nc4ccc(N5CC6CN(c7ccc8c(c7)C(=O)N(C7CCC(=O)NC7=O)C8=O)CC6C5)cc4)n3)C2)C1=O (some centres unmarked) [Compound 79]
18,< 5,"CN1CCN([C@@H]2CCCN(c3cnc(C(N)=O)c(Nc4ccc(N5CCC6(CCN(C(=O)CCOCCCc7cccc8c7CN(C7CCC(=O)NC7=O)C8=O)CC6)CC5)cc4)n3)C2)C1=O (stereo partly drawn) [Compound 57, 3-((4-(9-(3-(3-(2-(2,6-dioxopiperidin-3-yl)-1-oxoisoindolin-4-yl)propoxy)propanoyl)-3,9-diazaspiro[5.5]undecan-3-yl)phenyl)amino)-5-((R)-3-(3-methyl-2-oxoimidazolidin-1-yl)piperidin-1-yl)pyrazine-2-carboxamide]"
19,< 5,NC(=O)c1ncc(N2CCCCC2)nc1Nc1ccc(C2CCN(C[C@@H]3CCN(c4ccc5c(c4)C(=O)N(C4CCC(=O)NC4=O)C5=O)C3)CC2)cc1 (some centres unmarked) [Compound 149]
20,> 15,CN1CCN([C@H]2CCCN(c3cnc(C(N)=O)c(Nc4ccc(N5CCC6(CC5)CCN(c5ccc7c(c5)C(=O)N(C5CCC(=O)NC5=O)C7=O)CC6)cn4)n3)C2)C1=O (some centres unmarked) [Compound 81]
21,< 5,CN1CCN([C@H]2CCCN(c3cnc(C(N)=O)c(Nc4ccc(C5CCN(C[C@H]6CCCN6c6ccc7c(c6)C(=O)N(C6CCC(=O)NC6=O)C7=O)CC5)cc4)n3)C2)C1=O (some centres unmarked) [Compound 87]
22,< 5,CN1CCN([C@@H]2CCCN(c3cnc(C(N)=O)c(Nc4ccc(C5CN(C[C@H]6CCN(c7ccc8c(c7)C(=O)N(C7CCC(=O)NC7=O)C8=O)C6)C5)cc4)n3)C2)C1=O (some centres unmarked) [Compound 35]
23,< 5,CN1CCN([C@@H]2CCCN(c3cnc(C(N)=O)c(Nc4ccc(N5CCN(CCCc6cccc7c6CN(C6CCC(=O)NC6=O)C7=O)CC5)cc4)n3)C2)C1=O (some centres unmarked) [Compound 15]
